Source: paper PMC5063506, “A Novel Class of Small Molecule Agonists with Preference for Human over Mouse TLR4 Activation” (PLoS ONE, 2016)
Converted amounts (≈) assume the structure as drawn.

Key:
[1] = Solubility by dissolution of solid samples in buffer; format: physicochemical; details: aqueous buffer, thermodynamic from solid; solid samples in buffer at pH 7.4
Source text: (§1) Fig 2 Optimization stages of Ugi products as TLR4 agonists. *Human TLR-4 NFκB SEAP reporter assays; protocol as described in Methods. Data are reported as pEC50, or negative log of the EC50 values. **Clint rh / hm represents intrinsic clearance in presence of rat hepatocytes (μL/min/10^6 cells) and human microsomes (μL/min/mg protein). […] Thus a drug molecule with LogD >4 might be considered to be very lipophilic and therefore more likely to suffer from rapid metabolic turnover, poor solubility and receptor promiscuity; whereas a LogD range of 1–3 is more likely to be associated with optimal physicochemical and drug-like properties. ^††Solubility was measured by dissolution of solid samples in buffer at pH 7.4.

GP PBMCs = experiment: Cytokine gene expression in guinea pig PBMCs (QuantiGene Plex); format: cell-based; details: 1 and 0.2 μg/ml, 24 h, ranking among Ugi compounds
Procedure: Splenocytes were isolated from naïve BALB/c mice by dissociating spleens with a GentleMACS (Miltenyi) instrument, then filtration through […] screens. For other species, blood was obtained through venipuncture or cardiac puncture into heparinized tubes, then diluted 1:1 with PBS or HBSS and layered onto Ficoll-Histopaque (GE Healthcare) for blood from healthy human volunteers and cynomolgus macaques, Lympholyte-Mammal (Cedarlane Labs) for New Zealand white rabbits, Sprague-Dawley rats, Hartley guinea pigs, cotton rats, and ferrets, followed by standard density centrifugation techniques. PBMCs layers were recovered and cultured in RPMI-1640 + human AB serum (Life Technologies) + Pen Strep + L-Glutamine (human cells) or RPMI-1640 + 10% FBS (Hyclone) + Pen/Strep + L-Glutamine + 0.1% Beta-Mercapto-ethanol (Sigma) (mouse, cyno, rat, cotton rat, guinea pig, rabbit, ferret cells). Purchase of peripheral blood from cynomolgus macaques was from Valley Biosystems (West Sacramento, CA) and was performed in accordance with Standard Operating Procedures and with the approval of the Valley Biosystems Institutional Animal Care and Use Committee (IACUC). […]
(§2) PBMCs (human, cynomolgus macaque, guinea pig, ferret, rabbit, rat, and cotton rat) or splenocytes (mouse) were seeded onto 96-well flat bottom plates at 5 x 10^5 cells/well and stimulated with TLR4 agonists at 1 and 0.2 μg/ml for 24 h at 37°C. […] For human, cyno, mouse, and rat, cell-free SNs were analyzed via human, NHP, mouse, and rat MILLIPLEX kits. For GP, ferret, rabbit, and CR, cells were lysed by Millipore lysing buffer and snap frozen at -70 C until ready for analysis by Affymetrix QuantiGene 2.0 Plex kits. […] Signal was detected using a Bioplex 200 instrument (BioRad). […]
Fig 7 Activation of cytokine gene expression by Ugi compounds in GP PBMCs. […] SNs were analyzed via GP Affymetrix QuantiGene Plex assay. Data are expressed as the means of 3 GPs at the 1 μg/ml dose of TLR4 agonist and are representative of 2 studies. […]

[2] = Intrinsic clearance in presence of human microsomes; format: in vitro ADME; details: read-out: Clint hm (intrinsic clearance, human microsomes)
Source text: as §1

cytochrome P450 enzymes = experiment: Inhibition of cytochrome P450 enzymes (unpublished data); format: in vitro ADME; details: compared with earlier-stage, more lipophilic Ugi compounds
[3] = Intrinsic clearance in presence of rat hepatocytes; format: in vitro ADME; details: read-out: Clint rh (intrinsic clearance, rat hepatocytes)
Source text: as §1

cotton rat PBMCs = experiment: Cytokine gene expression in cotton rat PBMCs (QuantiGene Plex); format: cell-based; details: 1 μg/ml, 24 h
Procedure: (§3) Splenocytes were isolated from naïve BALB/c mice by dissociating spleens with a GentleMACS (Miltenyi) instrument, then filtration through […] screens. For other species, blood was obtained through venipuncture or cardiac puncture into heparinized tubes, then diluted 1:1 with PBS or HBSS and layered onto Ficoll-Histopaque (GE Healthcare) for blood from healthy human volunteers and cynomolgus macaques, Lympholyte-Mammal (Cedarlane Labs) for New Zealand white rabbits, Sprague-Dawley rats, Hartley guinea pigs, cotton rats, and ferrets, followed by standard density centrifugation techniques. […]
as §2
Fig 9 Species-specific activation of IL-6, TNF-α, and chemokine expression in primary cells. […] For human, cyno, mouse, and rat, SNs were analyzed via human, NHP, mouse, and rat MILLIPLEX kits. […]

rat PBMCs = experiment: Cytokine induction in rat PBMCs (rat MILLIPLEX); format: cell-based, Sprague-Dawley rat; details: 1 and 0.2 μg/ml, 24 h
Procedure: as §3, §2
Fig 8 Secreted cytokine profile of rat PBMCs stimulated by AZ618. […] SNs were analyzed via rat MILLIPLEX kits. Data are expressed as the means of 3 rats at the 1 μg/ml dose of TLR4 agonist and are representative of 2 studies. […]

Row | SMILES | solubility [1] [µM] | activity in GP PBMCs (cytokine mRNA) (GP PBMCs) | microsomal CLint [2] [µL/min/mg] | inhibition of one or more cytochrome P450 enzymes (cytochrome P450 enzymes) | hepatocyte CLint [3] [µL/min/1e6 cells] | activation of cotton rat PBMCs (cotton rat PBMCs) | response in rat PBMCs (cytokine secretion) (rat PBMCs)
1 | O=C(O)Cc1ccc(C(C(=O)NC2CCCC2)N(C(=O)c2cc(-c3ccccc3)n(-c3ccccc3)n2)c2ccc3c(c2)CCC3)cc1 (stereo not drawn) [AZ617] | 129 (≈ 82.4 µg/mL) | highest activity | < 3 | abolished | < 5 |  | 
2 | Cc1cc(C)cc(N(C(=O)c2cc(-c3ccccc3)n(-c3ccccc3)n2)C(C(=O)NC2CCCC2)c2ccc(CC(=O)O)cc2)c1 (stereo not drawn) [AZ618, 2-(4-(2-(cyclopentylamino)-1-(N-(3,5-dimethylphenyl)-1,5-diphenyl-1H-pyrazole-3-carboxamido)-2-oxoethyl)phenyl)acetic acid] |  | highest activity |  |  |  | able to activate | comparable to that induced by MPL
3 | CC(C)(C)c1ccc(N(C(=O)c2cc(-c3ccccc3)n(-c3ccccc3)n2)C(C(=O)NC2CCCC2)c2ccc(CC(=O)O)cc2)cc1 (stereo not drawn) [AZ902] |  | lowest activity |  |  |  |  | 
